These are literature values, as cited in US20210330903A1, “Multiple Dose Nasal Spray of Naloxone” (Navinta III Inc, priority 2020, published 2021).

Take `C=CCN1CC[C@]23c4c5ccc(O)c4O[C@H]2C(=O)CC[C@@]3(O)[C@H]1C5.Cl` [Naloxone hydrochloride, 17-Allyl-4,5α-epoxy-3,14 dihydroxymorphinan-6-one hydrochloride]: the solubility in alcohol result (alcohol) was “slightly soluble”. Besides, the solubility in chloroform result (chloroform) is given as “practically insoluble”. The “solubility in dilute acids” value (dilute acids) is listed as “soluble”. Further, the solubility in ether result (ether) is “practically insoluble”. For the same compound, the “solubility in strong alkali” value (strong alkali) is “soluble”. Also, the solubility in water result (water) is given as “soluble”.
